# Results: patent EP4700021A1, “NOVEL COMPOUND AND PHARMACEUTICAL COMPOSITION COMPRISING SAME AS ACTIVE INGREDIENT” (Sapiensbio Inc., priority 2023, dated 2025)
# What was measured:
# [1] = test system: ACTA2 mRNA; experiment: qRT-PCR of ACTA2 mRNA in TGF-β1-treated human renal fibroblasts; assay type: cell-based; conditions: human renal fibroblasts (HRFs); 10 and 50 µM; TGF-β1 (5 ng/mL); 48 hours; FIG. 3
# Protocol: (§1) Here, to confirm the degree of fibrosis, ACTA2 or COL1A1 mRNA, which can express α-SMA or collagen type 1, was used as an indicator. α-SMA is a marker for activated myofibroblasts, which are the main effector cells of fibrosis, and myofibroblasts with increased α-SMA expression are known to cause fibrosis by producing a fibrotic protein such as collagen type 1.
# (§2) Specifically, human renal fibroblasts (HRFs) were seeded, and cultured for 24 hours under a nutrient-deficient condition for effective cell activation. Afterward, the cells were treated with the compounds (Compounds 51 and 41) according to the present invention, together with TGF-β1 (5 ng/mL) to induce fibrosis, at 10 and 50 µM for 48 hours, respectively, and then cultured to extract RNA therefrom. The RNA was used to perform qRT-PCR. From the experimental results, the mRNA expression levels of ACTA2 and COL1A1 were confirmed, thereby verifying the therapeutic effects of the compounds.
# [2] = test system: ACTA2 mRNA; experiment: qRT-PCR of ACTA2 mRNA in TGF-β1-treated human hepatic stellate cells; assay type: cell-based; conditions: human hepatic stellate cells (HHSCs); 10 and 50 µM; TGF-β1 (5 ng/mL); 48 hours; FIG. 2
# Protocol: as §1, with “mRNA that” for “mRNA, which”, “1” for “1,”, “of” for “for”, “COL1A1.” for “collagen type 1.”
# as §2, with “hepatic stellate cells (HHSCs)” for “renal fibroblasts (HRFs)”
# [3] = test system: α-SMA; experiment: in vitro α-SMA expression inhibition (immunostaining, confocal microscopy) in TGF-β1-treated MRC-5 cells; assay type: cell-based, human; conditions: Homo sapiens, TGF-β1 (5 ng/mL), 72 hours, standardized using GAPDH
# [4] = test system: COL1A1 mRNA; experiment: qRT-PCR of COL1A1 mRNA in TGF-β1-treated human renal fibroblasts; assay type: cell-based; conditions: human renal fibroblasts (HRFs); 10 and 50 µM; TGF-β1 (5 ng/mL); 48 hours; FIG. 3
# Protocol: as §1, §2
# [5] = test system: F-actin; experiment: inhibition of F-actin formation (rhodamine phalloidin staining) in TGF-β1-treated MRC-5 cells; assay type: cell-based, human; conditions: compound 10 µM, TGF-β1 (5 ng/mL), 72 hours, FIG. 1
# Protocol: In this experimental example, 2 hours after human lung-derived fibroblasts (MRC-5 cells) were treated with Compound 41 (10 µM) or Compound 51 (10 µM) according to the present invention, or DMSO, dissolved in 0.5% FBS-containing serum, TGF-β1 (5 ng/mL) was treated to induce fibrosis. After 72 hours, the cells were immobilized with a 2% paraformaldehyde solution for 10 minutes, and to impart cell membrane permeability, a 0.1% Triton X-100 solution was treated for 10 minutes, and a 1% bovine serum albumin (BSA) solution was treated to prevent non-specific binding. For immunostaining, anti-GAPDH (BIO-RAD) was first treated as a primary antibody, and Alexa Fluor™ Plus 488 for GAPDH labeling was used as a secondary antibody. For staining of an actin cytoskeleton, particularly, F-actin, rhodamine phalloidin (Cytoskeleton) was used to confirm the increase and decrease in F-actin caused by the compounds. The immunohistochemical experimental results were confirmed with a STELLARIS 5 confocal microscope (Leica), F-actin stained with rhodamine phalloidin was standardized with GAPDH labeled with Alexa Fluor™ Plus 488 for quantification.
smiles,measurement,setting,value
"N[C@H]1CCN(C(=O)N2CCN(Cc3ccc(F)cc3)c3ccccc32)C1.O=C(O)/C=C/C(=O)O [Compound 41, (S)-(3-aminopyrrolidin-1-yl)(4-(4-fluorobenzyl)-3,4-dihydroquinoxaline-1(2H)-yl)methanone fumaric acid salt]",ACTA2 mRNA expression,[1],effectively inhibit the mRNA expression
same,ACTA2 mRNA expression,[2],effectively inhibit the mRNA expression
same,IC50,[3],< 1000 nM
same,COL1A1 mRNA expression,[4],effectively inhibit the mRNA expression
same,intracellular F-actin formation,[5],reduced to a level similar to that of the group not treated with TGF-β1
"CC(C)CN[C@H]1CCN(C(=O)N2CCN(Cc3ccccn3)c3ccccc32)C1.O=C(O)/C=C/C(=O)O [Compound 51, (S)-(3-(isobutylamino)pyrrolidin-1-yl)(4-(pyridin-2-ylmethyl)-3,4-dihydroquinoxaline-1(2H)-yl)methanone fumaric acid salt]",ACTA2 mRNA expression,[1],effectively inhibit the mRNA expression
same,ACTA2 mRNA expression,[2],effectively inhibit the mRNA expression
same,IC50,[3],< 1000 nM
same,COL1A1 mRNA expression,[4],effectively inhibit the mRNA expression
same,intracellular F-actin formation,[5],reduced to a level similar to that of the group not treated with TGF-β1
